Results from patent US20220008376A1, “INHIBITORS OF TYPE 3 SECRETION SYSTEM AND ANTIBIOTIC THERAPY” (priority 2018, published 2022).
Read-outs that look alike come from different tables or passages of the source.

What was measured:
[1] = target: T1, PscE-PscG heterodimer (Pseudomonas aeruginosa, UniProt P95435); assay type: binding; design: made in house; host or cells: total chemical synthesis (solid phase peptide synthesis and native chemical ligation), no expression host; conditions: FP competition with FAM-PscF69-85 for PscE-PscG
Protocol: Fluorescence polarization (FP) and FP-based competitive binding assays. All fluorescence polarization assays were done using black, low protein binding 96-well plates (Thermo Fisher Scientific) in a total volume of 100 μl per well of 10 mM Tris buffer containing 150 mM NaCl and 1 mM EDTA, pH 7.0, unless indicated otherwise. After a gentle mixing and incubation for 3 h, FP readings were taken at 470 nm (excitation) and 530 nm (emission) wavelengths on a Tecan Infinite M2000 fluorescence plate reader. Nonlinear regression analyses were performed to give rise to Kd and IC50 values as previously described.
For direct binding of PscF to PscG or PscE-PscG, equal volumes of FAM-PscF^69-85 (400 nM) and serially diluted PscG or PscE-PscG (0-64 μM) were mixed. For initial screening, 95 μl of FAM-PscF^69-85-PscE-PscG (100 nM) in the assay buffer was mixed with 5 μl of small molecule inhibitor in DMSO to a final molar concentration of 1, 10, 100, or 1000 μM. 5% DMSO and 6 M GuHCl in the final assay buffer were used as negative and positive controls, respectively. For secondary screening or competitive binding assays, 95 μl of FAM-PscF^69-85-PscE-PscG (100 nM) in the assay buffer was mixed with 5 μl of serially diluted PscF^69-85 or various tanshinone analogs (0-200 μM).
Target sequence in this assay (P95435 1-114): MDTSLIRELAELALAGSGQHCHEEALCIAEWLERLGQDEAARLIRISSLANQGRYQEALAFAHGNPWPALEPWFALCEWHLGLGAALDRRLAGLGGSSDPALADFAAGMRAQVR
Target sequence in this assay (Q9I317 whole entry, further chain): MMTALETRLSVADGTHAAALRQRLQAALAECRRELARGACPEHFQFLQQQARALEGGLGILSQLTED

[2] = system: secretion of ExoS by PAO1; test: Inhibition of T3SS-mediated effector secretion (ExoS Western blot); assay type: cell-based, Pseudomonas aeruginosa; conditions: PAO1 under low-calcium conditions; for inhibition of ExoS secretion: 100 μM
Protocol: Inhibition of T3SS-mediated effector secretion. For T3SS induction, PAO1 overnight cultures were diluted to an OD at 600 nm of 0.3 in LB containing 5 mM EGTA and 20 mM MgCl2, in the presence of tanshinone inhibitors ([…]), followed by an incubation with mild agitation of additional 3-4 hours until the cultures reached an OD value of 1.5. NC group were cultured in LB and 2% DMSO, PC group were cultured in LB containing 5 mM EGTA, 20 mM MgCl2 and 2% DMSO. Culture supernatant was collected by centrifugation at 4000 g for 15 min at 4° C. and secreted proteins were concentrated by adding ice-cold trichloroacetic acid to a final concentration of 10% (V/V). Following a 2 hours' incubation on ice, the pellets were washed twice with cold acetone and suspended in an SDS-PAGE sample buffer (with 2-mercaptoethanol) according to the BCA protein assay protocol. Secreted and total proteins (supernatant and pelleted bacteria) were analyzed by immunoblotting with an anti-ExoS antibody (Agrisera, AS05056, at 1:4000 dilution) and corresponding HRP-conjugated secondary antibody. The blots were semi-quantified using ImageJ 1.51 k (from http://imagej.nih.gov/ij). The results were expressed as the mean±SD percentage of secreted ExoS out of total ExoS of three independent experiments.

[3] = system: cytotoxicity of PAO1 to murine macrophages (J774A.1); test: Cytoplasmic lactate dehydrogenase (LDH) release assay, PAO1-infected macrophages; assay type: cell-based, mouse; conditions: for inhibition of Pseudomonas aeruginosa-induced cell lysis (LDH release), words: different concentrations, MOI 8, 5 hours; for EC50: Mus musculus
From the text: Cytoplasmic lactate dehydrogenase (LDH) release assay. […] LDH released into supernatant was detected by LDH detection kit (Beyotime, C0017) as instructed by the manufacturer.

[4] = system: PAO1; test: Survival study, murine model of acute pneumonia; assay type: in vivo, C57BL/6J mice; conditions: for mice died of infection within 48 h, first treatment 8 h after challenge: mock-treated 85%
Protocol: (§1) Animal studies. 6-week-old female C57BL/6J mice used in this study were acquired from the Experimental Animal Center of Xian Jiaotong University. All the animals were maintained in animal care facilities in the School of Life Science and Technology, and provided with food and water ad libitum. The animal studies were approved by the Committee on Animal Research and Ethics, Xi'an Jiaotong University.
For survival study, tanshinone inhibitors (100 μM, 1% DMSO, in 10 μL PBS) were administrated to the infected animals intranasally at the time of infection, or 8 h after infection, and every 12 hours till the death of the animal or the end of the experiment. PBS containing 1% DMSO was used as mock treatment.

[5] = system: PAO1; test: Bacterial burden in bronchoalveolar lavage and lung histopathology, PAO1-infected mice; assay type: in vivo, C57BL/6J mice
From the text: as §1
C57BL/6J mice were lightly anesthetized with inhaled sevoflurane and infected by intranasal instillation of PAO1 (1×10^7 CFU in 20 μL PBS) after lightly anesthetized with inhaled sevoflurane. Tanshinone inhibitors were administrated to the animals along with bacterial inoculation (100 μM, 1% DMSO). PBS containing 1% DMSO was used as mock treatment. 18 hours after infection, animals were sacrificed and bronchoalveolar lavages were collected and plated to obtain the bacterial counts in the lavages. The lungs of sacrificed mice were then isolated and fixed in 10% buffered formalin, paraffin embedded and hematoxylin-eosin-stained for histopathological examination. Pathological scores of the tissues were assigned according to the degree of inflammation.

[6] = target: T1, PscE-PscG heterodimer; test: 15N-1H HSQC NMR of 15N-PscG-PscE with dHTSN1; assay type: binding; design: inferred from the Ni-NTA purification; made in house; host or cells: PscG: E. coli (15N MOPS medium); PscE: chemical synthesis; conditions: molar ratio 1:1:1
Protocol: PscG was uniformly labeled with ^15N MOPS medium containing 1 g/L ^15NH4Cl as the sole source and BME vitamins (Sigma, USA). Cells were harvested by centrifugation at 6000 g for 30 min, resuspended in a lysis buffer containing 6 M urea, and subjected to a 1-min sonication, followed by two-cycle homogenization at 4° C. The lysates were centrifuged at 20,000 rpm for 30 min, and the supernatant was loaded onto a 10 ml Ni-NTA agarose column (Qiagen, USA). The elute was concentrated to 10-12 ml under denaturation conditions, followed by purification on a Sep-Pak C18 column. Peak fractions containing ^15N-PscG were lyophilized. […] The mixtures were dialyzed against the same buffer overnight and then concentrated to ˜300 μl.
All NMR samples were prepared in an NMR buffer containing 20 mM sodium phosphate (pH 7.4), 100 mM NaCl, 0.1% NaN3, 10% D2O and 2 mM DTT. The final protein concentrations were approximately 26 μM and 47.8 μM for ^15N-PscG-PscE and ^15N-PscG-PscE-dHTSN1 complexes, respectively. All NMR spectra were collected at 25° C. on a Bruker Avance 700 MHz spectrometer equipped with a triple-resonance pulse-field gradient probe. ^15N-^1H HSQC NMR spectra were recorded in the echo-antiecho mode for quadrature detection. All datasets were acquired with 2048 complex points in t2 and 256 complex points in t1.
Target sequence in this assay (Q9I317 whole entry): as the sequence (Q9I317 whole entry, further chain) above
Target sequence in this assay (P95435 whole entry): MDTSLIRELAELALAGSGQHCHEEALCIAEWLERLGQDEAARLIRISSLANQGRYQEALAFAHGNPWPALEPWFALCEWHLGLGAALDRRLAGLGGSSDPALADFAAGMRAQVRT

[7] = system: intracellular PAO1 in J774A.1 cells; conditions: different concentrations, gentamicin at 2 h post infection
Protocol: Quantification of bacterial internalization. 5×10^4 J774a cells were seeded into each well of a 24-well plate and grown for 24 h before infection. One hour before the infection, cell culture medium was changed into serum-free medium and PAO-1 from mid-exponential phase was added to the cells at a multiplicity of infection (MOI) of 8. In the presence of different concentration of tanshinone inhibitors (0-100 μM compound, 2% DMSO), bacteria/cells mixtures were incubated for 2 hours and washed, then treated with gentamicin-containing (50 μg/ml) medium for another 2 hours before being lysed for plating. Internalized bacteria were defined as the total number of intracellular bacteria in cells (extracellular bacteria were killed by gentamicin, a cell-impermeable antibiotic). Results were normalized against the intracellular bacteria number by PAO-1-infected cells with mock treatment (2% DMSO). Average results of three independent experiments are shown as mean±SD.

[8] = target: T2, PscF^69-85-PscE-PscG complex (Pseudomonas aeruginosa, UniProt P95435); test: CD spectroscopy and thermal denaturation of the heterotrimer; conditions: for effect on helicity of the heterotrimeric complex: CD, 20 μM heterotrimer, 25° C., 10 mM phosphate buffer, pH 7.4
T2 construct: made in house; host or cells: total chemical synthesis (solid phase peptide synthesis and native chemical ligation), no expression host
Protocol: Circular dichroism (CD) spectroscopy and thermal denaturation. […] Protein thermal denaturation was carried out in PBS using a JASCO circular dichroism spectrometer equipped with temperature controller. […] Under constant stirring, measurement was taken at one-degree interval between 25° C. and 90° C., at a heating rate of 1° C. per minute. After each 1-minute heating, the solution in the cuvette was waited for 20 s before signals were detected over a 16 s period. Heating and data acquisition were fully automated with the control software provided by JASCO. Data processing was performed as previously described.

[9] = first intranasal dose 8 h after PAO1
[10] = J774.A1, read-out: EC50, LDH release normalized against PAO1 ΔpscC
[11] = J774.A1, normalized against mock-treated PAO1-infected cells, read-out: EC50, inhibition of PAO1 cytotoxicity to macrophages (LDH release)

T2 sequence (Q9I317 whole entry): as the sequence (Q9I317 whole entry, further chain) above
T2 sequence (P95435 2-115): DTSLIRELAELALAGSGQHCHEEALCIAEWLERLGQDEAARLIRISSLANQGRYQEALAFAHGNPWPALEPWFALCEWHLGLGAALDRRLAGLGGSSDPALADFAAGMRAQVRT

C[C@H]1COC2=C1C(=O)C(=O)c1c2ccc2c1CCCC2(C)C [crpTSN, cryptotanshinone, reference compound] was tested, and the “activity in FP competition assay” value [1] was “inactive”, the “inhibition of ExoS secretion” value [2] was “no inhibitory activity” and the “inhibition of Pseudomonas aeruginosa-induced cell lysis (LDH release), words” value (“inhibition … words” below) [3] was “inactive”.
In the case of Cc1coc2c1C(=O)C(=O)c1c-2ccc2c1CCCC2(C)C [tanshinone 2A], the “activity in FP competition assay” value [1] is reported as “inactive”.
Cc1cccc2c3c(ccc12)C1=C(C(=O)C3=O)[C@@H](C)CO1 [dHTSN1, dihydrotanshinone 1] was tested, and the “inhibition of ExoS secretion” value [2] was “more active than TSN1”, the “infected mice survived beyond 96 h, first treatment 8 h after challenge” value [4, 9] was 80% and the “mice died of infection within 48 h, first treatment 8 h after challenge” value (shortened to “mice died of infection within 48 h”) [4, 9] was 5%. The EC50 [3, 10] was roughly 3 µM, the EC50 [3, 11] was 25 µM and the “inhibition … words” value [3] was “inhibited Pseudomonas aeruginosa-induced cell lysis in a dose dependent manner”. The “lung inflammation, H&E staining” value ([5]; 18 h post infection) was “significantly reduced inflammation” and the “interaction with 15N-PscG-PscE complex by NMR” value [6] was “relatively strong interactions”.
CC(Oc1ccc(Cl)cc1Cl)C(=O)NCc1ccc2c(c1)OCO2 (stereo not shown) [MBX-1641, reference compound] was tested, and the “activity in FP competition assay” value [1] was “no effect”, the “inhibition of ExoS secretion (MBX-1641)” value ([2]; 6.25 μM) was “inhibited” and the “inhibition of intracellular bacterial survival / proliferation of PAO1 in macrophages” value [7] was “inhibited”. The “bacterial burden in bronchoalveolar lavage” value ([5]; single dose 100 μM at time of infection, sampled 18 h post infection) was “reduced bacterial burden”.
Cc1coc2c1C(=O)C(=O)c1c-2ccc2c(C)cccc12 [TSN1, tanshinone 1] was tested, and the “protection of infected mice, treatment from time of infection” value ([4]; 100 μM intranasal at time of infection and every 12 h) was “significantly protective”, the “mice died of infection within 48 h” value [4, 9] was 40% and the “effect on helicity of the heterotrimeric complex” value [8] was “reduced”. For the same compound, the “effect on helicity of the heterotrimeric complex” value ([8]; listed as tanshinone 1) was “progressively decreases”, the “effect on thermal stability of the heterotrimeric complex” value ([8]; added to preformed heterotrimer PscE-PscG-PscF^69-85) was “reduced” and the Tm of PscF^69-85-PscE-PscG complex in presence of compound ([8]; complex 20 μM in PBS, 300 μM tanshinone 1, CD at 222 nm, 54.8 in absence) was 52.3 °C. For the same compound, the “inhibition … words” value [3] was “inhibited Pseudomonas aeruginosa-induced cell lysis in a dose dependent manner”.
For Cc1cccc2c3c(ccc12)C(=O)C1=C(OC[C@H]1C)C3=O [dHTSN], the “inhibition of ExoS secretion” value [2] was “more active than TSN1”, the “mice died of infection within 48 h” value [4, 9] was 20% and the EC50 [3, 10] was roughly 3 µM. The EC50 [3, 11] was 12.5 µM and the “inhibition … words” value [3] was “inhibited Pseudomonas aeruginosa-induced cell lysis in a dose dependent manner”.
